Read-outs that look alike come from different tables or passages of the source.
Legend:
[1] = cited from earlier work
[2] = cited from earlier work; remark: listed apart in the source
[3] = human, in vivo
Source text: It should be noted, of course, that death due to the side effect of drugs is a serious problem also in countries other than Japan, apart from its frequency.

Row | SMILES | frequency of development of ILD in Chinese relative to Japanese ([1]; Chinese versus Japanese) | frequency of development of ILD in Westerners relative to the frequency in Japanese ([1]; Westerners versus Japanese) | frequency of development of interstitial lung disease (ILD) ([1]; in Japanese) | frequency of diffuse alveolar damage ([2]; in Japanese) | frequency of diffuse alveolar damage ([2]; surveys on Asians) | times higher frequency of diffuse alveolar damage in Japanese [3]
1 | C#Cc1cccc(Nc2ncnc3cc(OCCOC)c(OCCOC)cc23)c1 [erlotinib] | not more than the frequency of development in Japanese | not more than 1/10 | about 4% | 2.7% | 0.2% | not less than 10 times
2 | COc1cc2ncnc(Nc3ccc(F)c(Cl)c3)c2cc1OCCCN1CCOCC1 [gefitinib] |  |  |  |  |  | not less than 10 times

From patent publication US9873920B2, “Method for evaluating side-effect onset risk in anticancer drug treatment, including detecting MUC4 gene polymorphism” (SAITAMA MEDICAL UNIVERSITY, priority 2013, dated 2018)
